Tested on: not given
Conditions: in comparison to a 15 mg dose of hydrocodone

Compound | Equianalgesic Doses of Opioids, Calculated Dose
CCC(=O)C(CC(C)N(C)C)(c1ccccc1)c1ccccc1 (stereo not shown) [Methadone] | 9.0 mg
COc1ccc2c3c1OC1C(=O)CC[C@H]4[C@@H](C2)N(C)CC[C@]314 (stereo partly shown) [Hydrocodone, 4,5-epoxy-3-methoxy-17-methylmorphinan-6-one] | 15.0 mg
CN1CC[C@]23CCCC[C@H]2[C@H]1Cc1ccc(O)cc13 [Levorphanol] | 1.8 mg
COc1ccc2c3c1O[C@H]1[C@@H](O)C=C[C@H]4[C@@H](C2)N(C)CC[C@@]341 [Codeine] | 90.0 mg
Meperidine | 135.0 mg
COc1ccc2c3c1OC1C(=O)CC[C@@]4(O)[C@@H](C2)N(C)CC[C@]314 (stereo partly shown) [Oxycodone, 4,5-epoxy-14-hydroxy-3-methoxy-17-methylmorphinan-6-one] | 13.5 mg

Tested on: opioid receptors
Conditions: cited from earlier work

Compound | antagonist potency relative to naltrexone
Oc1ccc2c3c1O[C@H]1[C@H](O)CC[C@@]4(O)[C@@H](C2)N(CC2CC2)CC[C@]314 [6-β-naltrexol] | 2 to 4%
